According to paper PMC7887271, “Fast acting allosteric phosphofructokinase inhibitors block trypanosome glycolysis and cure acute African trypanosomiasis in mice” (Nature Communications, 2021):
“And” between values parts separate entries of the source, which are not always exact repeats. Equal entries are not always repeated.

Target: T1, TbPFK (Trypanosoma brucei brucei, UniProt O15648)
T1 construct: made in house; host or cells: Escherichia coli C41 (pET28a, codon optimised gene)
T1 sequence (O15648 1-487): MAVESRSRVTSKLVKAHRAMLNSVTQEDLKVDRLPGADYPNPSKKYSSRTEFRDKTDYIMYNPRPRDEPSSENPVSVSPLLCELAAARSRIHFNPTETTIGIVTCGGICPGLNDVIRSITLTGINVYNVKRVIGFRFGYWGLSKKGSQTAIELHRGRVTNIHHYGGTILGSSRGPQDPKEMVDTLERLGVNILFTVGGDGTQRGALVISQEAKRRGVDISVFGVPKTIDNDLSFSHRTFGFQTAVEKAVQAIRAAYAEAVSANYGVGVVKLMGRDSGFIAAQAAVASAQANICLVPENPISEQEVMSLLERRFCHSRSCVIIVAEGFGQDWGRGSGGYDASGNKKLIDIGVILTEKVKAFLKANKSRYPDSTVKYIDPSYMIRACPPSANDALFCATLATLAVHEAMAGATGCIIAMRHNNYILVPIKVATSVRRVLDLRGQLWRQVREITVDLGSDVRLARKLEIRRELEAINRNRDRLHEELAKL
Assay: ALDO/G3PDH/TIM linked enzyme assay for measuring PFK inhibition
Format: biochemical
Design: key: absorbance at 340 nm (NADH)
Experimental: In the PFK/PYK/LDH assay, the linked PYK activity acts to convert the ADP produced by PFK back to ATP. As ATP is an inhibitor of human PFK (but not TbPFK) at concentrations higher than ~0.5 mM the regeneration of ATP is likely to affect the assay readout. An alternative linked assay was therefore developed using PFK/aldolase (ALDO)/glycerol-3-phosphate dehydrogenase (G3PD)/triosephosphate isomerase (TIM). In this assay F16BP produced by PFK is subsequently converted by aldolase into dihydroxyacetone phosphate (DHAP) and glyceraldehyde 3-phosphate (GA3P). TIM interconverts GA3P and DHAP, and DHAP is reduced to glycerol 3-phosphate by G3PD, alongside the oxidation of NADH to NAD^+, which was measured by observing the change in UV absorbance at 340 nm for 10 minutes at 25° C using a Spectramax© M5 Multimode plate reader.
The assay buffer consisted of 50 mM TEA, 100 mM KCl, 10 mM MgCl2, 10% glycerol, 1 mM Tris(2-carboxyethyl)phosphine (TCEP), pH 7.4. Assay mix consisted of 5 U/ml G3PD (Sigma-Aldrich G6880), 2.5 U/ml ALDO (Sigma-Aldrich A2714), 25 U/ml TIM (Sigma-Aldrich T6258), and 1.25 mM NADH. ATP and F6P were obtained from Sigma-Aldrich (A2383 and F3627, respectively). All ligands and substrates (including ATP) were used at pH 7.4). 40 µl of assay mix, followed by 45 µl assay buffer, 4 µl of 0.1 mg/ml PFK and 1 µl of 100x serially diluted inhibitors were added to a non-binding, clear 96-well plate (Greiner Bio-One 655901) and incubated at RT for 10 minutes. The reaction was started by addition of 10 µl of 6 mM F6P (Supplementary Table 1).

CN(C)CCn1ccc2c(ccn2Cc2ccc(Cl)c(Cl)c2)c1=O [CTCB 405]
TbPFK reaction time course reading (Figure 6a) (0.02 uM CTCB 405, time 0.104167): 0.5676 and 0.5291 | TbPFK reaction time course reading (Figure 6a) (0.02 uM CTCB 405, time 0.121528): 0.545 and 0.5077 | TbPFK reaction time course reading (Figure 6a) (0.02 uM CTCB 405, time 0.138889): 0.5241 and 0.488 | TbPFK reaction time course reading (Figure 6a) (0.02 uM CTCB 405, time 0.15625): 0.5057 and 0.4696 | TbPFK reaction time course reading (Figure 6a) (0.02 uM CTCB 405, time 0.173611): 0.4873 and 0.4524 | TbPFK reaction time course reading (Figure 6a) (0.02 uM CTCB 405, time 0.190972): 0.4705 and 0.4366 | TbPFK reaction time course reading (Figure 6a) (0.05 uM CTCB 405, time 0.104167): 0.6118 and 0.5698 | TbPFK reaction time course reading (Figure 6a) (0.05 uM CTCB 405, time 0.121528): 0.5919 and 0.5511 | TbPFK reaction time course reading (Figure 6a) (0.05 uM CTCB 405, time 0.138889): 0.5731 and 0.5324 | TbPFK reaction time course reading (Figure 6a) (0.05 uM CTCB 405, time 0.15625): 0.5537 and 0.5159 | TbPFK reaction time course reading (Figure 6a) (0.05 uM CTCB 405, time 0.173611): 0.5368 and 0.4994 | TbPFK reaction time course reading (Figure 6a) (0.05 uM CTCB 405, time 0.190972): 0.5212 and 0.4835 | TbPFK reaction time course reading (Figure 6a) (0.43 uM CTCB 405, time 0.104167): 0.7703 and 0.7388 | TbPFK reaction time course reading (Figure 6a) (0.43 uM CTCB 405, time 0.121528): 0.7663 and 0.7359 | TbPFK reaction time course reading (Figure 6a) (0.43 uM CTCB 405, time 0.138889): 0.7635 and 0.7314 | TbPFK reaction time course reading (Figure 6a) (0.43 uM CTCB 405, time 0.15625): 0.7593 and 0.7286 | TbPFK reaction time course reading (Figure 6a) (0.43 uM CTCB 405, time 0.173611): 0.7551 and 0.7249 | TbPFK reaction time course reading (Figure 6a) (0.43 uM CTCB 405, time 0.190972): 0.7517 and 0.7206 | TbPFK reaction time course reading (Figure 6a) (0.43 uM CTCB 405, time 0.208333): 0.7473 and 0.7169 | TbPFK reaction time course reading (Figure 6a) (1.29 uM CTCB 405, time 0.104167): 0.8081 and 0.7679 | TbPFK reaction time course reading (Figure 6a) (1.29 uM CTCB 405, time 0.121528): 0.808 and 0.7688 | TbPFK reaction time course reading (Figure 6a) (1.29 uM CTCB 405, time 0.138889): 0.8069 and 0.768 | TbPFK reaction time course reading (Figure 6a) (1.29 uM CTCB 405, time 0.15625): 0.8064 and 0.7673 | TbPFK reaction time course reading (Figure 6a) (1.29 uM CTCB 405, time 0.173611): 0.8063 and 0.7675 | TbPFK reaction time course reading (Figure 6a) (1.29 uM CTCB 405, time 0.190972): 0.8048 and 0.7672 | TbPFK reaction time course reading (Figure 6a) (3.88 uM CTCB 405, time 0.104167): 0.8165 and 0.7707 | TbPFK reaction time course reading (Figure 6a) (3.88 uM CTCB 405, time 0.121528): 0.8167 and 0.7708 | TbPFK reaction time course reading (Figure 6a) (3.88 uM CTCB 405, time 0.138889): 0.8177 and 0.7708 | TbPFK reaction time course reading (Figure 6a) (3.88 uM CTCB 405, time 0.15625): 0.8174 and 0.7711 | TbPFK reaction time course reading (Figure 6a) (3.88 uM CTCB 405, time 0.173611): 0.8172 and 0.7718 | TbPFK reaction time course reading (Figure 6a) (3.88 uM CTCB 405, time 0.190972): 0.8172 and 0.7712 | TbPFK reaction time course reading (Figure 6a) (11.66 uM CTCB 405, time 0.104167): 0.818 and 0.7732 | TbPFK reaction time course reading (Figure 6a) (11.66 uM CTCB 405, time 0.121528): 0.8194 and 0.7744 | TbPFK reaction time course reading (Figure 6a) (11.66 uM CTCB 405, time 0.138889): 0.8194 and 0.7745 | TbPFK reaction time course reading (Figure 6a) (11.66 uM CTCB 405, time 0.15625): 0.8194 and 0.7742 | TbPFK reaction time course reading (Figure 6a) (11.66 uM CTCB 405, time 0.173611): 0.8203 and 0.7754 | TbPFK reaction time course reading (Figure 6a) (11.66 uM CTCB 405, time 0.190972): 0.82 and 0.776 | TbPFK reaction time course reading (Figure 6a) (35 uM CTCB 405, time 0.104167): 0.7782 and 0.7773 | TbPFK reaction time course reading (Figure 6a) (35 uM CTCB 405, time 0.121528): 0.7782 and 0.776 | TbPFK reaction time course reading (Figure 6a) (35 uM CTCB 405, time 0.138889): 0.7789 and 0.7774 | TbPFK reaction time course reading (Figure 6a) (35 uM CTCB 405, time 0.15625): 0.7788 and 0.7781 | TbPFK reaction time course reading (Figure 6a) (35 uM CTCB 405, time 0.173611): 0.779 and 0.7789 | TbPFK reaction time course reading (Figure 6a) (35 uM CTCB 405, time 0.190972): 0.7794 and 0.7785
